Measurements published in US9080197B2, “Equol level regulator” (priority 2005, dated 2015).
Read-outs that look alike come from different tables or passages of the source.

Assays:
[1] = test system: feces of an equol producer (microorganisms having conversion ability to equol); assay: Effect of carbohydrates upon equol production in anaerobic culture of feces of an equol producer with daidzein; format: cell-based; conditions: for activity at 1 %: Homo sapiens; for Equol concentration in medium: anaerobic, 37° C., no carbohydrate 18.1 μM; for daidzein added to the medium remaining: 100 μM of daidzein added
Source text: The equol concentration regulating activity of a carbohydrate can be checked by taking feces from a human having ability to produce equol (equol producer), adding daidzein serving as a substrate for equol and a target carbohydrate to the feces thus taken, culturing the feces, determining the concentration of equol in the culture medium and fitting the determined equol concentration to the following equation in comparison with the concentration of equol in a culture medium containing no carbohydrate. Equal concentration regulating activity (%)=(equol concentration of a culture medium containing a target carbohydrate)/(equol concentration of a culture medium containing no carbohydrate)×100
Fresh feces of an equol producer were suspended in a dilute solution (10-fold by volume) containing 0.00255% of KH2PO4, 0.00255% of K2HPO4, 0.006% of NaCl, […] of (NH4)2SO4, 0.000255% of CaCl2, 0.000255% of MgSO4, 0.1% of a 0.1% resazurin solution, 2.2% of an 8% Na2CO3 solution and 0.05% of L-cysteine hydrochloride by use of glass beads (φ 3 mm) in anaerobic conditions and solid matter was removed by use of sterilized gauze. The solution was centrifuged at 8,000 rpm for 10 minutes. Precipitation was suspended in a dilute solution in the same amount thereof. The solution was stored in a freezer at −30° C. as it was.
The feces dilution solution was thawed and centrifuged again. Precipitation was resuspended in PY medium (100-fold by volume) containing 0.5% of peptone, 0.5% of trypticase peptone, 1% of yeast extract, 0.00005% of hemin, 0.0001% of vitamin K1, 0.05% of L-cysteine hydrochloride, 0.0006% of KH2PO4, 0.0006% of K2HPO4, 0.0012% of NaCl, 0.0006% of (NH4)2SO4, 0.00006% of CaCl2 and 0.00006% of MgSO4. At this time, adonitol, arabinose, cellobiose, erythritol, fructo-oligosaccharide, fructose, galactose, glucose, glycogen, inositol, […], lactitol, lactose, lactulose, maltose, mannitol, mannose, melezitose, melibiose, raffinose, rhamnose, ribose, sorbitol, sorbose, sucrose, trehalose, xylose, or galacto-oligosaccharide was added so as to obtain a final concentration of 1%. Simultaneously, a series of sample containing no carbohydrate was prepared. To the series of samples, daidzein was added so as to obtain a final concentration of 100 μM. Culture was performed in completely anaerobic conditions at 37° C. for 16 hours. Note that culture was performed independently in four series. From the culture solution obtained, daidzein and equol were extracted and subjected to HPLC analysis. Note that inositol used herein is myo-inositol manufactured by SIGMA and glycogen was one derived from oyster and manufactured by SIGMA. Trehalose is D(+) trehalose (α,α form) manufactured by SIGMA and galacto-oligosaccharide is TOS-S, which is a mixture of 4′galactosyl-lactose and 6′galactosyl-lactose, and manufactured by Yakult Pharmaceutical Industry Co., Ltd. Fructo-oligosaccharide is a mixture of 1-kestose, nystose and 1-fructosyl-D-nystose manufactured by Wako Pure Chemical Industries, Ltd.
Daidzein and equol were extracted by the following manner. To 500 μL of a culture solution, 250 μL of diethyl ether was added and sufficiently stirred. The solution mixture was centrifuged at 2,000 rpm for 10 minutes to obtain a diethyl ether layer. The remaining aqueous layer was subjected to diethyl ether extraction performed in the same manner. The ether layers obtained in the two extraction operations were combined, concentrated and dried under spray of nitrogen gas flow at 40° C. The dried product was dissolved in 250 μL of 80% methanol and filtrated through a filter to obtain a sample to be subjected to measurement.
Furthermore, HPLC was performed in the following conditions:
Daidzein and equol standard products were poured in the aforementioned conditions to form calibration curves, respectively. In this manner, daidzein and equol concentrations of the samples were determined. […]

[2] = test system: microorganism having conversion ability to equol; assay: Sub-culture of feces of an equol producer in PY medium containing a carbohydrate (selective medium), daidzein-to-equol conversion; format: cell-based; conditions: PY medium with 1% carbohydrate, daidzein 100 μM, 37° C., 16 hours per passage
Protocol: A feces suspension solution stored in the process according to Experimental Example 1 was added to 500 μL of PY mediums (to which adonitol or sorbose was previously added so as to obtain a final concentration of 1%; and distilled water was added in place of adonitol or sorbose for preparing a control sample) so as to obtain a content of 1/10 and daidzein was added so as to obtain a final concentration of 100 μM. Each medium was cultured at 37° C. for 16 hours in completely anaerobic conditions. After the culturing, an aliquot of 50 μL was taken from the culture solution and transferred to a fresh PY medium (500 μL). The remaining culture solution was subjected to daidzein and equol extraction. Thereafter, the same operation was repeatedly performed. In this manner, sub-culture was performed. At this time, a bacterial solution was appropriately subjected to gram staining and microscopically observed. The extraction of daidzein and equol, and quantification by HPLC were performed in accordance with the method described in Experimental Example 1. Each obtained daidzein and equol concentration was fitted into the following formula to obtain a daidzein-to-equol conversion rate. Note that culture was performed independently in three series to obtain an average conversion rate and standard deviation thereof. […]

[3] = rat, Non-Patent Document 5; cited from earlier work
[4] = relative to medium containing no carbohydrate (=100%), carbohydrate 1%, daidzein 100 μM, 16 hours, read-out: Equol concentration regulating activity
[5] = carbohydrate 1%, daidzein 100 μM, 16 hours
[6] = sample containing no carbohydrate taken as 100%, carbohydrate 1%, read-out: daidzein-to-equol conversion rate
[7] = read-out: daidzein-to-equol conversion rate
[8] = relative to medium containing no carbohydrate (=100%), carbohydrate 1%, daidzein 100 μM, 16 hours

Compound | activity at 1 % [1, 4] | Equol concentration in medium [1, 5] | activity at 1 % [1, 6] | also measured
C[C@H](O)[C@H](O)[C@@H](O)[C@@H](O)C=O [Rhamnose, rhamnose] | 116% | 21.0 µM | – | –
OC[C@H]1O[C@H](O[C@H]2O[C@H](CO)[C@@H](O)[C@H](O)[C@H]2O)[C@H](O)[C@@H](O)[C@@H]1O [Trehalose, D(+) trehalose] | 404% | 72.9 µM | ≥ 200% | –
O=C[C@@H](O)[C@H](O)[C@H](O)CO [Arabinose, arabinose] | 391% | 70.6 µM | ≥ 200% | –
OC[C@@H](O)[C@@H](O[C@@H]1O[C@H](CO)[C@H](O)[C@H](O)[C@H]1O)[C@H](O)[C@@H](O)CO [Lactitol, lactitol] | 459% | 82.9 µM | ≥ 200% | –
OC[C@H]1O[C@@](CO)(O[C@H]2O[C@H](CO)[C@@H](O)[C@H](O)[C@H]2O)[C@@H](O)[C@@H]1O [Sucrose, sucrose] | 0% | 0.0 µM | ≤ 50% | daidzein added to the medium remaining ([1]; carbohydrate 1%): mostly remained; equol production [1, 5]: not observed
OC[C@H]1O[C@@H](O[C@H]2[C@H](O)[C@@H](O)C(O)O[C@@H]2CO)[C@H](O)[C@@H](O)[C@H]1O (stereo partly shown) [Lactose, lactose] | 0% | 0.0 µM | ≤ 50% | daidzein added to the medium remaining ([1]; carbohydrate 1%): mostly remained; equol production [1, 5]: not observed
OC[C@H]1O[C@@H](O[C@@H]2[C@@H](CO)OC(O)(CO)[C@H]2O)[C@H](O)[C@@H](O)[C@H]1O (mixture of isomers) [Lactulose, lactulose] | 8.1% | 1.5 µM | ≤ 50% | –
O=C(CO)[C@@H](O)[C@H](O)[C@H](O)CO [Fructose, fructose] | 51.5% | 9.3 µM | – | –
O[C@H]1[C@H](O)[C@@H](O)[C@H](O)[C@@H](O)[C@H]1O [Inositol, myo-inositol] | 416% | 75.2 µM | ≥ 200% | –
O=C[C@H](O)[C@@H](O)[C@@H](O)[C@H](O)CO [Galactose, galactose] | 240% | 65.0 µM | – | activity at 1 % [1, 7]: ≥ 200%
OC[C@H]1O[C@H](OCC2O[C@@H](O)[C@H](O)[C@@H](O)[C@@H]2O)[C@H](O)[C@@H](O)[C@H]1O (stereo partly shown) [Melibiose, melibiose] | – | 4.5 µM | – | Equol concentration regulating activity [1, 8]: 24.8%
O=C(CO)[C@H](O)[C@@H](O)[C@H](O)CO [Sorbose, sorbose] | 468% | 84.5 µM | – | activity at 1 % [1, 7]: ≥ 200%; generation to which conversion ability to equol can be maintained in sub-culture [2]: 11th
O=C[C@H](O)[C@@H](O)[C@H](O[C@@H]1O[C@H](CO)[C@@H](O)[C@H](O)[C@H]1O)[C@H](O)CO [Cellobiose, cellobiose] | 161% | 29.0 µM | – | –
O=C[C@H](O)[C@@H](O)[C@H](O)CO [Xylose, xylose] | 443% | 79.9 µM | ≥ 200% | –
OC[C@@H](O)[C@@H](O)[C@@H](O)CO [Adonitol, adonitol] | 260% | 47.0 µM | ≥ 200% | generation to which conversion ability to equol can be maintained in sub-culture [2]: 8th
OC[C@H]1O[C@@](CO)(O[C@H]2O[C@H](CO)[C@@H](O)[C@H](O)[C@H]2O)[C@@H](O[C@H]2O[C@H](CO)[C@@H](O)[C@H](O)[C@H]2O)[C@@H]1O [Melezitose, melezitose] | 412% | 74.3 µM | ≥ 200% | –
O=C[C@H](O)[C@H](O)[C@H](O)CO [Ribose, ribose] | 330% | 59.5 µM | ≥ 200% | –
OC[C@@H](O)[C@@H](O)CO [Erythritol, erythritol] | 214% | 38.7 µM | ≥ 200% | –
OC[C@H]1O[C@H](OC[C@H]2O[C@H](O[C@]3(CO)O[C@H](CO)[C@@H](O)[C@@H]3O)[C@H](O)[C@@H](O)[C@@H]2O)[C@H](O)[C@@H](O)[C@H]1O [Raffinose, raffinose] | 0% | 0.0 µM | ≤ 50% | daidzein added to the medium remaining ([1]; carbohydrate 1%): mostly remained; equol production [1, 5]: not observed
Inulin [reference compound] | – | 0.0 µM | – | daidzein added to the medium remaining ([1]; carbohydrate 1%): mostly remained; effect on daidzein-to-equol conversion rate in this test system ([1]; carbohydrate 1%): significantly decreases; equol production [1, 5]: not observed; Equol concentration regulating activity [1, 8]: 0.0%; equol concentration in the serum [3]: reduces
glycogen | – | 33.4 µM | – | Equol concentration regulating activity [1, 8]: 184.8%
OC[C@H]1O[C@H](O[C@H]2[C@H](O)[C@@H](O)[C@H](O)O[C@@H]2CO)[C@H](O)[C@@H](O)[C@@H]1O [Maltose, maltose] | 58.5% | 10.6 µM | – | –
OC[C@@H](O)[C@@H](O)[C@H](O)[C@H](O)CO [Mannitol, mannitol] | 182% | 32.9 µM | – | –
OC[C@@H](O)[C@@H](O)[C@H](O)[C@@H](O)CO [Sorbitol, sorbitol] | 372% | 67.3 µM | ≥ 200% | –
